Test results from patent US12071441B2, “10-(di(phenyl)methyl)-4-hydroxy-8,9,9A,10-tetrahydro-7H-pyrrolo[1′,2′:4,5]pyrazino[1,2-b]pyridazine-3,5-dione derivatives and related compounds as inhibitors of the orthomyxovirus replication for treating influenza” (Novartis AG, priority 2018, dated 2024).

Tests used:
Assay in all cases: microbe, parasite or virus in culture
Assay type in all cases: cell-based
[1] = test system: influenza A virus minigenome (PB2, PB1, PA, NP; luciferase reporter) in 293T cells, RNP_CAL; conditions: HEK-293T, 48 h, read-out: RNP_CAL_EC50
[2] = test system: influenza A virus minigenome (PB2, PB1, PA, NP; luciferase reporter) in 293T cells, RNP_Hubei; conditions: HEK-293T, 48 h
[3] = test system: influenza A virus minigenome (PB2, PB1, PA, NP; luciferase reporter) in 293T cells, RNP_Alaska; conditions: HEK-293T, 48 h

| Structure (SMILES) | EC50 [1] [nM] | EC50 [2] [nM] | EC50 [3] [nM] |
| --- | --- | --- | --- |
| COc1cccc([C@@H](c2cccc(F)c2F)[C@H]2[C@H]3CCCN3C(=O)c3c(O)c(=O)cnn32)c1 [Example 29, (9aR,10S)-10-((S)-(2,3-difluorophenyl)(3-methoxyphenyl)methyl)-4-hydroxy-8,9,9a,10-tetrahydro-7H-pyrrolo[1′,2′:4,5]pyrazino[1,2-b]pyridazine-3,5-dione] | 100 to 1000 | 100 to 1000 | 100 to 1000 |
| COC(=O)OCOc1c2n(ncc1=O)[C@@H]([C@H](c1ccccc1)c1cccc(F)c1F)[C@H]1CCCN1C2=O [Example 30, (((9aR,10S)-10-((R)-(2,3-difluorophenyl)(phenyl)methyl)-3,5-dioxo-3,5,8,9,9a,10-hexahydro-7H-pyrrolo[1′,2′:4,5]pyrazino[1,2-b]pyridazin-4-yl)oxy)methyl methyl carbonate] | < 100 | < 100 | < 100 |
| CC(C)C(=O)Oc1c2n(ncc1=O)[C@@H]([C@H](c1ccccc1)c1cccc(F)c1F)[C@H]1CCCN1C2=O [Example 31, (9aR,10S)-10-((R)-(2,3-difluorophenyl)(phenyl)methyl)-3,5-dioxo-3,5,8,9,9a,10-hexahydro-7H-pyrrolo[1′,2′:4,5]pyrazino[1,2-b]pyridazin-4-yl isobutyrate] | < 100 | < 100 | < 100 |
| CC(C)C(=O)OCOc1c2n(ncc1=O)[C@@H]([C@H](c1ccccc1)c1cccc(F)c1F)[C@H]1CCCN1C2=O [Example 32, (((9aR,10S)-10-((R)-(2,3-difluorophenyl)(phenyl)methyl)-3,5-dioxo-3,5,8,9,9a,10-hexahydro-7H-pyrrolo[1′,2′:4,5]pyrazino[1,2-b]pyridazin-4-yl)oxy)methyl isobutyrate] | < 100 | < 100 | < 100 |
| COC(=O)OC(C)Oc1c2n(ncc1=O)[C@@H]([C@H](c1ccccc1)c1cccc(F)c1F)[C@H]1CCCN1C2=O (stereo partly drawn) [Example 33, 1-(((9aR,10S)-10-((R)-(2,3-difluorophenyl)(phenyl)methyl)-3,5-dioxo-3,5,8,9,9a,10-hexahydro-7H-pyrrolo[1′,2′:4,5]pyrazino[1,2-b]pyridazin-4-yl)oxy)ethyl methyl carbonate] | < 100 | < 100 | 100 to 1000 |
| CC(C)OC(=O)Oc1c2n(ncc1=O)[C@@H]([C@H](c1ccccc1)c1cccc(F)c1F)[C@H]1CCCN1C2=O [Example 34, (9aR,10S)-10-((R)-(2,3-difluorophenyl)(phenyl)methyl)-3,5-dioxo-3,5,8,9,9a,10-hexahydro-7H-pyrrolo[1′,2′:4,5]pyrazino[1,2-b]pyridazin-4-yl isopropyl carbonate] | < 100 | < 100 | < 100 |
| CN(C)C(=O)Oc1c2n(ncc1=O)[C@@H]([C@H](c1ccccc1)c1cccc(F)c1F)[C@H]1CCCN1C2=O [Example 35, (9aR,10S)-10-((R)-(2,3-difluorophenyl)(phenyl)methyl)-3,5-dioxo-3,5,8,9,9a,10-hexahydro-7H-pyrrolo[1′,2′:4,5]pyrazino[1,2-b]pyridazin-4-yl dimethylcarbamate] | ≥ 1000 | ≥ 1000 | ≥ 1000 |
| CN1CCN(C(=O)OCOc2c3n(ncc2=O)[C@@H]([C@H](c2ccccc2)c2cccc(F)c2F)[C@H]2CCCN2C3=O)CC1 [Example 36, (((9aR,10S)-10-((R)-(2,3-difluorophenyl)(phenyl)methyl)-3,5-dioxo-3,5,8,9,9a,10-hexahydro-7H-pyrrolo[1′,2′:4,5]pyrazino[1,2-b]pyridazin-4-yl)oxy)methyl 4-methylpiperazine-1-carboxylate] | ≥ 1000 | ≥ 1000 | ≥ 1000 |
| COC(C)(C)CC(=O)Oc1c2n(ncc1=O)[C@@H]([C@H](c1ccccc1)c1cccc(F)c1F)[C@H]1CCCN1C2=O [Example 39, (9aR,10S)-10-((R)-(2,3-difluorophenyl)(phenyl)methyl)-3,5-dioxo-3,5,8,9,9a,10-hexahydro-7H-pyrrolo[1′,2′:4,5]pyrazino[1,2-b]pyridazin-4-yl 3-methoxy-3-methylbutanoate] | < 100 | < 100 | < 100 |
| COC(C)(C)C(=O)Oc1c2n(ncc1=O)[C@@H]([C@H](c1ccccc1)c1cccc(F)c1F)[C@H]1CCCN1C2=O [Example 40, (9aR,10S)-10-((R)-(2,3-difluorophenyl)(phenyl)methyl)-3,5-dioxo-3,5,8,9,9a,10-hexahydro-7H-pyrrolo[1′,2′:4,5]pyrazino[1,2-b]pyridazin-4-yl 2-methoxy-2-methylpropanoate] | < 100 | < 100 | < 100 |
| COC(=O)C(C)(C)OC(=O)OCOc1c2n(ncc1=O)[C@@H]([C@H](c1ccccc1)c1cccc(F)c1F)[C@H]1CCCN1C2=O [Example 42, methyl 2-((((((9aR,10S)-10-((R)-(2,3-difluorophenyl)(phenyl)methyl)-3,5-dioxo-3,5,8,9,9a,10-hexahydro-7H-pyrrolo[1′,2′:4,5]pyrazino[1,2-b]pyridazin-4-yl)oxy)methoxy)carbonyl)oxy)-2-methylpropanoate] | 100 to 1000 | 100 to 1000 | 100 to 1000 |
| Cc1oc(=O)oc1COc1c2n(ncc1=O)[C@@H]([C@H](c1ccccc1)c1cccc(F)c1F)[C@H]1CCCN1C2=O [Example 43, (9aR,10S)-10-((R)-(2,3-difluorophenyl)(phenyl)methyl)-4-((5-methyl-2-oxo-1,3-dioxol-4-yl)methoxy)-8,9,9a,10-tetrahydro-7H-pyrrolo[1′,2′:4,5]pyrazino[1,2-b]pyridazine-3,5-dione] | < 100 | < 100 | < 100 |
| CN1CCN(C(=O)Oc2c3n(ncc2=O)[C@@H]([C@H](c2ccccc2)c2cccc(F)c2F)[C@H]2CCCN2C3=O)CC1 [Example 44, (9aR,10S)-10-((R)-(2,3-difluorophenyl)(phenyl)methyl)-3,5-dioxo-3,5,8,9,9a,10-hexahydro-7H-pyrrolo[1′,2′:4,5]pyrazino[1,2-b]pyridazin-4-yl 4-methylpiperazine-1-carboxylate] | 100 to 1000 | < 100 | 100 to 1000 |
| COC(=O)OCOc1c2n(ncc1=O)[C@@H]([C@H](c1cccc(F)c1)c1ccc(F)c(F)c1)[C@H]1CCCN1C2=O [Example 45, (((9aR,10S)-10-((R)-(3,4-difluorophenyl)(3-fluorophenyl)methyl)-3,5-dioxo-3,5,8,9,9a,10-hexahydro-7H-pyrrolo[1′,2′:4,5]pyrazino[1,2-b]pyridazin-4-yl)oxy)methyl methyl carbonate] | < 100 | < 100 | < 100 |
| O=C(Oc1c2n(ncc1=O)[C@@H]([C@H](c1ccccc1)c1cccc(F)c1F)[C@H]1CCCN1C2=O)N1CCCCC1 [Example 48, (9aR,10S)-10-((R)-(2,3-difluorophenyl)(phenyl)methyl)-3,5-dioxo-3,5,8,9,9a,10-hexahydro-7H-pyrrolo[1′,2′:4,5]pyrazino[1,2-b]pyridazin-4-yl piperidine-1-carboxylate] | < 100 | < 100 | < 100 |
| CC(C)(C)OC(=O)Oc1c2n(ncc1=O)[C@@H]([C@H](c1ccccc1)c1cccc(F)c1F)[C@H]1CCCN1C2=O [Example 49, tert-butyl ((9aR,10S)-10-((R)-(2,3-difluorophenyl)(phenyl)methyl)-3,5-dioxo-3,5,8,9,9a,10-hexahydro-7H-pyrrolo[1′,2′:4,5]pyrazino[1,2-b]pyridazin-4-yl) carbonate] | < 100 | < 100 | < 100 |
| COCCOC(=O)Oc1c2n(ncc1=O)[C@@H]([C@H](c1ccccc1)c1cccc(F)c1F)[C@H]1CCCN1C2=O [Example 50, (9aR,10S)-10-((R)-(2,3-difluorophenyl)(phenyl)methyl)-3,5-dioxo-3,5,8,9,9a,10-hexahydro-7H-pyrrolo[1′,2′:4,5]pyrazino[1,2-b]pyridazin-4-yl (2-methoxyethyl) carbonate] | < 100 | < 100 | < 100 |
| CCOC(=O)OCOc1c2n(ncc1=O)[C@@H]([C@H](c1ccccc1)c1cccc(F)c1F)[C@H]1CCCN1C2=O [Example 51, (((9aR,10S)-10-((R)-(2,3-difluorophenyl)(phenyl)methyl)-3,5-dioxo-3,5,8,9,9a,10-hexahydro-7H-pyrrolo[1′,2′:4,5]pyrazino[1,2-b]pyridazin-4-yl)oxy)methyl ethyl carbonate] | < 100 | < 100 | < 100 |
| CC(C)OC(=O)OCOc1c2n(ncc1=O)[C@@H]([C@H](c1ccccc1)c1cccc(F)c1F)[C@H]1CCCN1C2=O [Example 52, (((9aR,10S)-10-((R)-(2,3-difluorophenyl)(phenyl)methyl)-3,5-dioxo-3,5,8,9,9a,10-hexahydro-7H-pyrrolo[1′,2′:4,5]pyrazino[1,2-b]pyridazin-4-yl)oxy)methyl isopropyl carbonate] | < 100 | < 100 | < 100 |
| CCOC(=O)Oc1c2n(ncc1=O)[C@@H]([C@H](c1ccccc1)c1cccc(F)c1F)[C@H]1CCCN1C2=O [Example 53, (9aR,10S)-10-((R)-(2,3-difluorophenyl)(phenyl)methyl)-3,5-dioxo-3,5,8,9,9a,10-hexahydro-7H-pyrrolo[1′,2′:4,5]pyrazino[1,2-b]pyridazin-4-yl ethyl carbonate] | < 100 | < 100 | < 100 |
| CC(C)(C)OC(=O)OCOc1c2n(ncc1=O)[C@@H]([C@H](c1ccccc1)c1cccc(F)c1F)[C@H]1CCCN1C2=O [Example 55, tert-butyl ((((9aR,10S)-10-((R)-(2,3-difluorophenyl)(phenyl)methyl)-3,5-dioxo-3,5,8,9,9a,10-hexahydro-7H-pyrrolo[1′,2′:4,5]pyrazino[1,2-b]pyridazin-4-yl)oxy)methyl) carbonate] | 100 to 1000 | < 100 | 100 to 1000 |
